According to ChEMBL document CHEMBL1145390, “Synthesis and preliminary biological characterization of new semisynthetic derivatives of ramoplanin” (J Med Chem, 2007):
≈ marks a conversion by molar mass, not a printed value. Calls of active or inactive are those of the source. No cut-off for these calls is given here.

Key:
Enterococcus faecium [1] = assay: Antibacterial activity against Enterococcus faecium after 24 hrs by broth microdilution method; format: functional; conditions: for MIC: read-out: MIC
Streptococcus pyogenes = assay: Antibacterial activity against Streptococcus pyogenes C203 after 24 hrs by broth microdilution method; format: functional; conditions: C203, 24 h, read-out: MIC
Staphylococcus aureus [2] = assay: Antibacterial activity against vancomycin-intermediate resistant Staphylococcus aureus clinical isolate in presence of 30% bovine serum after 24 hrs by broth microdilution method; format: functional
Enterococcus faecalis [3] = assay: Antibacterial activity against Enterococcus faecalis after 24 hrs by broth microdilution method; format: functional; conditions: read-out: MIC
Staphylococcus aureus [4] = assay: Antibacterial activity against methicillin-resistant and vancomycin-intermediate resistant Staphylococcus aureus clinical isolate after 24 hrs by broth microdilution method; format: functional; conditions: read-out: MIC
Staphylococcus aureus [5] = assay: Antibacterial activity against Staphylococcus aureus Smith in presence of 30% bovine serum after 24 hrs by broth microdilution method; format: functional
Staphylococcus aureus [6] = assay: Antibacterial activity against Staphylococcus aureus Smith after 24 hrs by broth microdilution method; format: functional; conditions: read-out: MIC
[7] = Toxicity assessed as hemolysis in erythrocytes at 800 mg/L; format: cell-based, Erythrocyte; conditions: human, read-out: Activity
Escherichia coli = assay: Antibacterial activity against Escherichia coli SKF-12140 after 24 hrs by broth microdilution method; format: functional; conditions: read-out: MIC
Enterococcus faecium [8] = assay: Antibacterial activity against vancomycin A-resistant Enterococcus faecium clinical isolate in presence of 30% bovine serum after 24 hrs by broth microdilution method; format: functional
[9] = Toxicity assessed as hemolysis in erythrocytes at 200 mg/L; format: cell-based, Erythrocyte; conditions: human, read-out: Activity
[10] = Toxicity assessed as hemolysis in erythrocytes at 400 mg/L; format: cell-based, Erythrocyte; conditions: human, read-out: Activity
Enterococcus faecalis [11] = assay: Antibacterial activity against vancomycin A-resistant Enterococcus faecalis after 24 hrs by broth microdilution method; format: functional; conditions: read-out: MIC
Staphylococcus aureus [12] = assay: Antibacterial activity against vancomycin-intermediate resistant Staphylococcus aureus clinical isolate after 24 hrs by broth microdilution method; format: functional
[13] = Toxicity assessed as hemolysis in erythrocytes at 100 mg/L; format: cell-based, Erythrocyte; conditions: human, read-out: Activity
Candida albicans = assay: Antifungal activity against Candida albicans SKF-2270 after 24 hrs by broth microdilution method; format: functional; conditions: read-out: MIC
Enterococcus faecium [14] = assay: Antibacterial activity against vancomycin A-resistant Enterococcus faecium clinical isolate after 24 hrs by broth microdilution method; format: functional; conditions: read-out: MIC
Staphylococcus aureus [15] = assay: Antibacterial activity against methicillin-resistant Staphylococcus aureus clinical isolate after 24 hrs by broth microdilution method; format: functional; conditions: read-out: MIC
Enterococcus faecalis [16] = assay: Antibacterial activity against vancomycin-resistant Enterococcus faecalis in presence of 30% bovine serum after 24 hrs by broth microdilution method; format: functional
[17] = Toxicity assessed as hemolysis in erythrocytes at 1600 mg/L; format: cell-based, Erythrocyte; conditions: human, read-out: Activity
[18] = Toxicity assessed as hemolysis in erythrocytes at 180 mg/L; format: cell-based, Erythrocyte; conditions: human, erythrocytes; read-out: Activity
[19] = Toxicity assessed as hemolysis in erythrocytes at 90 mg/L; format: cell-based, Erythrocyte; conditions: human, erythrocytes; read-out: Activity
[20] = Toxicity assessed as hemolysis in erythrocytes at 300 mg/L; format: cell-based, Erythrocyte; conditions: human, read-out: Activity
[21] = Toxicity assessed as hemolysis in erythrocytes at 1200 mg/L; format: cell-based, Erythrocyte; conditions: human, read-out: Activity
[22] = Toxicity assessed as hemolysis in erythrocytes at 600 mg/L; format: cell-based, Erythrocyte; conditions: human, read-out: Activity

| Compound | MIC (Enterococcus faecium [1]) [µg/mL] | MIC (Streptococcus pyogenes) [µg/mL] | MIC (Staphylococcus aureus [2]) [µg/mL] | MIC (Enterococcus faecalis [3]) [µg/mL] | MIC (Staphylococcus aureus [4]) [µg/mL] | MIC (Staphylococcus aureus [5]) [µg/mL] | MIC (Staphylococcus aureus [6]) [µg/mL] | hemolysis at 800 mg/L [7] [%] | MIC (Escherichia coli) [µg/mL] | MIC (Enterococcus faecium [8]) [µg/mL] | hemolysis at 200 mg/L [9] [%] | hemolysis at 400 mg/L [10] [%] | MIC (Enterococcus faecalis [11]) [µg/mL] | MIC (Staphylococcus aureus [12]) [µg/mL] | hemolysis at 100 mg/L [13] [%] | MIC (Candida albicans) [µg/mL] | MIC (Enterococcus faecium [14]) [µg/mL] | MIC (Staphylococcus aureus [15]) [µg/mL] | MIC (Enterococcus faecalis [16]) [µg/mL] | hemolysis at 1600 mg/L [17] [%] | further results |
| --- | --- | --- | --- | --- | --- | --- | --- | --- | --- | --- | --- | --- | --- | --- | --- | --- | --- | --- | --- | --- | --- |
| Cc1ccccc1CC(=O)N[C@@H](CC(N)=O)C(=O)NC[C@@H]1C(=O)N[C@H](c2ccc(O)cc2)C(=O)N[C@H](CCCN)C(=O)N[C@H](C(C)C)C(=O)N[C@@H](c2ccc(O)cc2)C(=O)N[C@H](c2ccc(O)cc2)C(=O)N[C@@H]([C@@H](C)O)C(=O)N[C@@H](Cc2ccccc2)C(=O)N[C@H](CCCN)C(=O)N[C@@H](c2ccc(O[C@H]3O[C@H](CO)[C@@H](O)[C@H](O)[C@@H]3O[C@H]3O[C@H](CO)[C@@H](O)[C@H](O)[C@@H]3O)cc2)C(=O)N[C@H]([C@@H](C)O)C(=O)N[C@@H](c2ccc(O)cc2)C(=O)NCC(=O)N[C@@H](CC(C)C)C(=O)N[C@H](C)C(=O)N[C@@H](c2ccc(O)c(Cl)c2)C(=O)O[C@@H]1C(N)=O | 0.5 (≈ 0.195 µM) | ≤ 0.125 | 1 | 0.5 (≈ 0.195 µM) | 2 (≈ 0.781 µM) | 0.25 | ≤ 0.125 | 2 | > 128 | 1 | 1 | 1 | 0.25 (≈ 0.0976 µM) | 1 (≈ 0.39 µM) | 1 | > 128 | 0.5 (≈ 0.195 µM) | ≤ 0.125 | 0.5 | 5 |  |
| CC(C)C[C@@H]1NC(=O)CNC(=O)[C@H](c2ccc(O)cc2)NC(=O)[C@@H]([C@@H](C)O)NC(=O)[C@H](c2ccc(O[C@H]3O[C@H](CO)[C@@H](O)[C@H](O)[C@@H]3O[C@H]3O[C@H](CO)[C@@H](O)[C@H](O)[C@@H]3O)cc2)NC(=O)[C@@H](CCCN)NC(=O)[C@H](Cc2ccccc2)NC(=O)[C@H]([C@@H](C)O)NC(=O)[C@@H](c2ccc(O)cc2)NC(=O)[C@H](c2ccc(O)cc2)NC(=O)[C@@H](C(C)C)NC(=O)[C@@H](CCCN)NC(=O)[C@@H](c2ccc(O)cc2)NC(=O)[C@@H](CNC(=O)[C@H](CC(N)=O)NC(=O)Cc2cccc3ccccc23)[C@@H](C(N)=O)OC(=O)[C@H](c2ccc(O)c(Cl)c2)NC(=O)[C@@H](C)NC1=O.Cl | 0.125 | ≤ 0.06 | 1 | ≤ 0.06 | 2 | 0.25 | ≤ 0.06 | 98 | > 128 | 0.5 | 30 | 60 | ≤ 0.06 | 0.25 |  | > 128 | ≤ 0.06 | ≤ 0.06 | 0.25 |  | hemolysis at 180 mg/L [18]: 28%; hemolysis at 90 mg/L [19]: 15% |
| Cc1ccccc1C(=O)N[C@@H](CC(N)=O)C(=O)NC[C@@H]1C(=O)N[C@H](c2ccc(O)cc2)C(=O)N[C@H](CCCN)C(=O)N[C@H](C(C)C)C(=O)N[C@@H](c2ccc(O)cc2)C(=O)N[C@H](c2ccc(O)cc2)C(=O)N[C@@H]([C@@H](C)O)C(=O)N[C@@H](Cc2ccccc2)C(=O)N[C@H](CCCN)C(=O)N[C@@H](c2ccc(O[C@H]3O[C@H](CO)[C@@H](O)[C@H](O)[C@@H]3O[C@H]3O[C@H](CO)[C@@H](O)[C@H](O)[C@@H]3O)cc2)C(=O)N[C@H]([C@@H](C)O)C(=O)N[C@@H](c2ccc(O)cc2)C(=O)NCC(=O)N[C@@H](CC(C)C)C(=O)N[C@H](C)C(=O)N[C@@H](c2ccc(O)c(Cl)c2)C(=O)O[C@@H]1C(N)=O | 2 (≈ 0.785 µM) | ≤ 0.125 | 4 | 2 (≈ 0.785 µM) | 8 (≈ 3.14 µM) | 1 | 1 (≈ 0.392 µM) | 94 | > 128 | ≤ 0.125 | 17 | 83 | 2 (≈ 0.785 µM) | 8 (≈ 3.14 µM) | 2 | > 128 | 4 (≈ 1.57 µM) | 1 (≈ 0.392 µM) | 2 | 93 |  |
| Cc1ccc(CC(=O)N[C@@H](CC(N)=O)C(=O)NC[C@@H]2C(=O)N[C@H](c3ccc(O)cc3)C(=O)N[C@H](CCCN)C(=O)N[C@H](C(C)C)C(=O)N[C@@H](c3ccc(O)cc3)C(=O)N[C@H](c3ccc(O)cc3)C(=O)N[C@@H]([C@@H](C)O)C(=O)N[C@@H](Cc3ccccc3)C(=O)N[C@H](CCCN)C(=O)N[C@@H](c3ccc(O[C@H]4O[C@H](CO)[C@@H](O)[C@H](O)[C@@H]4O[C@H]4O[C@H](CO)[C@@H](O)[C@H](O)[C@@H]4O)cc3)C(=O)N[C@H]([C@@H](C)O)C(=O)N[C@@H](c3ccc(O)cc3)C(=O)NCC(=O)N[C@@H](CC(C)C)C(=O)N[C@H](C)C(=O)N[C@@H](c3ccc(O)c(Cl)c3)C(=O)O[C@@H]2C(N)=O)cc1.Cl | 0.5 | ≤ 0.125 | 4 | 0.25 | 4 | 0.5 | ≤ 0.125 |  | > 128 | 2 |  |  | ≤ 0.125 | 2 |  | > 128 | 0.5 | ≤ 0.125 | 2 |  | hemolysis at 180 mg/L [18]: 0%; hemolysis at 90 mg/L [19]: 0%; hemolysis at 300 mg/L [20]: 2%; hemolysis at 1200 mg/L [21]: 9%; hemolysis at 600 mg/L [22]: 11% |
| Cc1ccccc1C(C)C(=O)N[C@@H](CC(N)=O)C(=O)NC[C@@H]1C(=O)N[C@H](c2ccc(O)cc2)C(=O)N[C@H](CCCN)C(=O)N[C@H](C(C)C)C(=O)N[C@@H](c2ccc(O)cc2)C(=O)N[C@H](c2ccc(O)cc2)C(=O)N[C@@H]([C@@H](C)O)C(=O)N[C@@H](Cc2ccccc2)C(=O)N[C@H](CCCN)C(=O)N[C@@H](c2ccc(O[C@H]3O[C@H](CO)[C@@H](O)[C@H](O)[C@@H]3O[C@H]3O[C@H](CO)[C@@H](O)[C@H](O)[C@@H]3O)cc2)C(=O)N[C@H]([C@@H](C)O)C(=O)N[C@@H](c2ccc(O)cc2)C(=O)NCC(=O)N[C@@H](CC(C)C)C(=O)N[C@H](C)C(=O)N[C@@H](c2ccc(O)c(Cl)c2)C(=O)O[C@@H]1C(N)=O (some centres not stated) |  | ≤ 0.125 | 4 | 0.5 (≈ 0.194 µM) | 4 (≈ 1.55 µM) | 1 | 0.25 (≈ 0.097 µM) |  | > 128 | 8 |  |  | 1 (≈ 0.388 µM) | 2 (≈ 0.776 µM) |  | > 128 | 1 (≈ 0.388 µM) | 0.5 (≈ 0.194 µM) | 2 |  | Activity (Enterococcus faecium [1]): inactive; hemolysis at 300 mg/L [20]: 2%; hemolysis at 1200 mg/L [21]: 45%; hemolysis at 600 mg/L [22]: 4% |
| CCCCC(CC)C(=O)N[C@@H](CC(N)=O)C(=O)NC[C@@H]1C(=O)N[C@H](c2ccc(O)cc2)C(=O)N[C@H](CCCN)C(=O)N[C@H](C(C)C)C(=O)N[C@@H](c2ccc(O)cc2)C(=O)N[C@H](c2ccc(O)cc2)C(=O)N[C@@H]([C@@H](C)O)C(=O)N[C@@H](Cc2ccccc2)C(=O)N[C@H](CCCN)C(=O)N[C@@H](c2ccc(O[C@H]3O[C@H](CO)[C@@H](O)[C@H](O)[C@@H]3O[C@H]3O[C@H](CO)[C@@H](O)[C@H](O)[C@@H]3O)cc2)C(=O)N[C@H]([C@@H](C)O)C(=O)N[C@@H](c2ccc(O)cc2)C(=O)NCC(=O)N[C@@H](CC(C)C)C(=O)N[C@H](C)C(=O)N[C@@H](c2ccc(O)c(Cl)c2)C(=O)O[C@@H]1C(N)=O (some centres not stated) | 0.5 (≈ 0.196 µM) | ≤ 0.125 | 2 | 0.5 (≈ 0.196 µM) | 2 (≈ 0.782 µM) | 0.5 | 0.25 (≈ 0.0978 µM) | 73 | > 128 | 1 | 4 | 8 | 0.25 (≈ 0.0978 µM) | 1 (≈ 0.391 µM) | 0 | > 128 | 0.5 (≈ 0.196 µM) | 0.25 (≈ 0.0978 µM) | 1 | 83 |  |
| CC/C=C/C=C\CC(=O)N[C@@H](CC(N)=O)C(=O)NC[C@@H]1C(=O)N[C@H](c2ccc(O)cc2)C(=O)N[C@H](CCCN)C(=O)N[C@H](C(C)C)C(=O)N[C@@H](c2ccc(O)cc2)C(=O)N[C@H](c2ccc(O)cc2)C(=O)N[C@@H]([C@@H](C)O)C(=O)N[C@@H](Cc2ccccc2)C(=O)N[C@H](CCCN)C(=O)N[C@@H](c2ccc(O[C@H]3O[C@H](CO)[C@@H](O)[C@H](O)[C@@H]3O[C@H]3O[C@H](CO)[C@@H](O)[C@H](O)[C@@H]3O)cc2)C(=O)N[C@H]([C@@H](C)O)C(=O)N[C@@H](c2ccc(O)cc2)C(=O)NCC(=O)N[C@@H](CC(C)C)C(=O)N[C@H](C)C(=O)N[C@@H](c2ccc(O)c(Cl)c2)C(=O)O[C@@H]1C(N)=O | 0.5 (≈ 0.196 µM) | ≤ 0.125 | 2 | 0.5 (≈ 0.196 µM) | 2 (≈ 0.784 µM) | 0.5 | 0.25 (≈ 0.098 µM) | 96 | > 128 | 1 | 45 | 51 | 0.25 (≈ 0.098 µM) | 1 (≈ 0.392 µM) | 38 | > 128 | 0.25 (≈ 0.098 µM) | 0.25 (≈ 0.098 µM) | 0.5 |  |  |
